Assay results taken from patent US20250092418A1, “METHODS OF GENETICALLY ALTERING A PLANT NIN-GENE TO BE RESPONSIVE TO AUXIN” (NIAB, priority 2023, published 2025).

Tests used:
MtNIN = assay: Relative expression of MtNIN in M. truncatula roots after auxin analogue treatment; assay type: in vivo, Medicago truncatula; settings: exogenous treatment 0.1, 1 or 10 μM for 16 hours and 2 days
Protocol: Germinated seedlings (approx. 4 days after germination) are moved to FPmod plates supplemented with 0.1 μM, 1 μM, or 10 μM NAA, 0.8% agarose (Sigma), and adjusted to pH 7. The seedlings were maintained for 16 hours and 2 days under 16 h-day and 8 h-night cycle at 24-22° C. before harvesting them for RNA extraction.
Total RNA was reverse-transcribed using SuperScript™ III Reverse Transcriptase (Life Technologies) and anchored dT17 primers as described in the manufacturer's protocol. About 1 μl of cDNA was used to set up real-time RT-qPCR in a […] reaction system with 2×SYBR™ Green PCR master mixes (PCR biosystems) using an ABI Proflex7 Real-Time PCR system. PCR program: 1 cycle at 50° C. for 2 min, 1 cycle at 95° C. for 5 min, and 40 cycles at 95° C. for 30 s and 60° C. for 30s. Expression data were obtained from 3 independent biological repetitions. Calculations were done using the cycle threshold method using MtEF1a, DgActin and FvHistoneH4 as the endogenous control.

pDR5:NLS-eGFP = pDR5:NLS-eGFP expression in barley STARTS lines post auxin treatment; assay type: in vivo, Hordeum vulgare; settings: 50 μM 2,4D
Protocol: Tissue culture STARTS plants were grown in rooting media for approximately 4 weeks after transfer, and barley seeds were grown on water-agar plates for seven days after germination, after which seedlings were transferred to 1% Hoagland's media plates. […] The root portion of the plates was covered with aluminum foil. The plants were maintained under a 16 h-day and 8 h-night cycle at 24-22° C. Tissue was harvested four weeks after treatment for phenotyping and RNA extraction.
Auxin treatment was reported to induce nodule like-structures (NLS) in rice (Hiltenbrand et al., 2016). Since it was established in the strawberry system that expressing pDR5:DryasNIN could form NLS with some proto-nodule identity under the influence of auxin, lines in barley (Hordeum vulgare var Golden promise) were raised with the same cassette. To establish the efficacy of the pDR5 promoter in barely system, some transgenics were also raised with pDR5:GUS and pDR5:NLS-eGFP (FIGS. 23A-23F, 24A-24J). In comparison to overexpressing pOsUbi:GUS, pDR5:GUS expression under control condition was very weak (FIGS. 23B-23C).

pDgNIN:GUS = assay: GUS staining of pDgNIN:GUS hairy roots after treatment with LCO / chitin oligomer signaling molecules; assay type: in vivo, Datisca glomerata; settings: 24 hours post treatment with 10^−7M
Protocol: (§1) For GUS staining the harvested roots were thoroughly cleaned in sterile water and scored under the stereo-fluorescent microscope so that only the transformed roots were harvested for the staining purpose. The roots were fixed in 90% acetone on ice for 1 hour. Subsequently, the acetone was replaced with 50 mM phosphate buffer pH7.2 (Sigma) and the roots were washed twice to remove any acetone. The roots were then moved to the staining solution containing 0.1M Phosphate buffer, 0.25 mM K3[Fe(CN)6](potassium ferricyanide), 0.25 mM K4[Fe(CN)6](potassium ferrocyanide), 0.25% (v/v) Triton X-100 and 1 mM 5-bromo-4-chloro-3-indolyl beta-D-glucuronide (X-Gluc, Thermo). The samples were vacuum infiltrated for 30 minutes and incubated at 37° C. overnight. After staining the tissues were cleared of all the staining solution and stored in 50% ethanol for imaging under the stereomicroscope DX105 F (Leica). For ruthenium red staining the staining solution was prepared (0.1% ruthenium red in sterile water) and a few microliters are added over each section and subsequently washed using sterile deionized water. For toluidine blue staining, 0.1% toluidine blue staining solution was prepared in deionized water and a few microliters are added over each section and subsequently washed using sterile deionized water. […]

pDgNIN2:GUS = assay: GUS staining of pDgNIN2:GUS hairy roots after treatment with LCO / chitin oligomer signaling molecules; assay type: in vivo, Datisca glomerata; settings: 24 hours post treatment with 10^−7M
Protocol: as §1

DgNIN = assay: Relative expression of DgNIN in D. glomerata roots (real-time PCR, normalized to DgActin); assay type: in vivo, Datisca glomerata; settings: 10 days post treatment with 100^−6M NAA
Protocol: (§2) Germinated seedlings (approx. 4 weeks after germination) are moved to ½MS plates supplemented with 0.5 g/L MES (Merck), 100^−6M NAA, 0.8% agarose (Sigma) and adjusted to pH 5.8. The seedlings were maintained for 10 days under a 16 h-day and 8 h-night cycle at 22-24° C. before harvesting for RNA extraction.
(§3) Each plant root system consisting of transformed root or nodules was harvested and each individual root system formed a biological replicate; 3 or more technical replicates were prepared from each root system having a 100-150 mg sample. RNA was extracted using a modified extraction buffer containing 2% SDS (v/v), 100 mM Tris-HCl pH 8.0, 1.4M NaCl, and 20 mM EDTA. The samples were crushed with tungsten-carbide beads (Qiagen) in a mechanical pulverize (Spex Geno/Grinder®) in the presence of 12 μl/ml β-mercaptoethanol (Sigma) and 50 mg PVPP (Sigma). The powder was resuspended with the extraction buffer followed by treatment with chloroform:iso-amyl alcohol (24:1)(Melford) and chloroform (Sigma). […] The extracted RNA was quantified using a NanoDrop® (Thermo) and then treated for DNase digestion using TURBO DNA-free™ kit (Thermo) using the manufacturer protocol. […] Quantitative real-time polymerase chain reaction (qRT-PCR) was performed in technical replicates using SyGreen mix Lo-ROX (PCR Biosystems) using QuantStudio™ 7 Flex system (ABI) in a total volume of 10 μl. […]

DgNIN2 = assay: Relative expression of DgNIN2 in D. glomerata roots (real-time PCR, normalized to DgActin); assay type: in vivo, Datisca glomerata; settings: 10 days post treatment with 100^−6M NAA
Protocol: as §2, §3

pDR5:GUS [1] = assay: pDR5:GUS auxin signaling readout in stable F. vesca lines; assay type: in vivo, Fragaria vesca; set-up: dose or concentration left out as unconfirmed
Protocol: Tissue culture plants growing in SMR (approximately 4 weeks after transfer) were moved to ½ Hoagland's media plates supplemented with 100^−6M NAA, 0.8% agarose (Sigma). The plants were maintained for 4 weeks under a 16 h-day and 8 h-night cycle at 22-24° C. before harvesting for phenotyping and RNA extraction.
as §1, with “(Leica).” for “(Leica). For ruthenium red staining the staining solution was prepared (0.1% ruthenium red in sterile water) and a few microliters are added over each section and subsequently washed using sterile deionized water. For toluidine blue staining, 0.1% toluidine blue staining solution was prepared in deionized water and a few microliters are added over each section and subsequently washed using sterile deionized water.”

pDR5:GUS [2] = assay: pDR5:GUS expression in barley STARTS lines post auxin treatment; assay type: in vivo, Hordeum vulgare; settings: 100 μM NAA, 3 weeks post treatment
Protocol: as §1

| Compound | activation of MtNIN expression (MtNIN) | GUS staining of pDgNIN:GUS roots (pDgNIN:GUS) | GUS staining of pDgNIN2:GUS roots (pDgNIN2:GUS) | also measured |
| --- | --- | --- | --- | --- |
| O=C(O)COc1ccc(Cl)cc1Cl [2,4D, 2,4-Dichlorophenoxyacetic acid] | differential activation of MtNIN expression |  |  | pDR5:NLS-eGFP signal (pDR5:NLS-eGFP): eGFP localization could be seen in the nucleus |
| CC(=O)N[C@H]1[C@H](O[C@H]2[C@H](O)[C@@H](NC(C)=O)C(O)O[C@@H]2CO)O[C@H](CO)[C@@H](O[C@@H]2O[C@H](CO)[C@@H](O[C@@H]3O[C@H](CO)[C@@H](O)[C@H](O)[C@H]3NC(C)=O)[C@H](O)[C@H]2NC(C)=O)[C@@H]1O (stereo partly shown) [C04] |  | intense staining in the root vasculature and near the root tip | did not show staining |  |
| CC(=O)N[C@H]1[C@H](O[C@H]2[C@H](O)[C@@H](NC(C)=O)[C@H](O[C@H]3[C@H](O)[C@@H](NC(C)=O)[C@H](O[C@H]4[C@H](O)[C@@H](NC(C)=O)C(O)O[C@@H]4CO)O[C@@H]3CO)O[C@@H]2CO)O[C@H](CO)[C@@H](O[C@@H]2O[C@H](CO)[C@@H](O[C@@H]3O[C@H](CO)[C@@H](O[C@@H]4O[C@H](CO)[C@@H](O[C@@H]5O[C@H](CO)[C@@H](O)[C@H](O)[C@H]5NC(C)=O)[C@H](O)[C@H]4NC(C)=O)[C@H](O)[C@H]3NC(C)=O)[C@H](O)[C@H]2NC(C)=O)[C@@H]1O (stereo partly shown) [C08] |  | no staining | failed to induce any NIN expression |  |
| O=C(O)CCCc1c[nH]c2ccccc12 [IBA, Indole-3-butyric acid] | differential activation of MtNIN expression |  |  |  |
| O=C(O)Cc1cccc2ccccc12 [NAA, 1-naphthalene acetic acid] | differential activation of MtNIN expression |  |  | increase in the expression of DgNIN as compared to the control treated root samples (DgNIN): ~4 fold; increase in the expression of DgNIN2 as compared to the control treated root samples (DgNIN2): ~12 fold; pDR5:GUS staining pattern (pDR5:GUS [1]; +N+P+NAA): non-specific expression throughout the root system; pDR5:GUS staining pattern (pDR5:GUS [1]; −N+P+NAA (N limiting condition)): localized GUS staining in the bump like structures; pDR5:GUS staining (pDR5:GUS [2]): GUS staining was visible in the bump-like structures |
